From ChEMBL document CHEMBL3608207, “Synthesis, characterization, evaluation and molecular dynamics studies of 5, 6-diphenyl-1,2,4-triazin-3(2H)-one derivatives bearing 5-substituted 1,3,4-oxadiazole as potential anti-inflammatory and analgesic agents” (Eur J Med Chem, 2015) come the findings set out here.

pIC50: −log10 of the molar value.

Series [1] relates to Rattus norvegicus. Kind of series: Gastro-intestinal toxicity in rat Freund's adjuvant induced arthritis model of chronic inflammation assessed as histological changes at equimolar oral dose relative to 10 mg/kg, po indomethacin dosed after 14 days from day of adjuvant injection until day 21 and measured on day 21 by hematoxylin and eosin staining based microscopy. Type of series: organism-based. As to conditions: in vivo, 336 h.

The test system of series [2] is Rattus norvegicus. Kind of series: Gastro-intestinal toxicity in rat Freund's adjuvant induced arthritis model of chronic inflammation assessed as ulcer index at equimolar oral dose relative to 10 mg/kg, po indomethacin dosed after 14 days from day of adjuvant injection until day 21 and measured on day 21. As to conditions: in vivo, 336 h. Type of series: organism-based.

The subject of series [3] is Rattus norvegicus. Put plainly: Toxicity in healthy albino rat assessed as induction of sleep up to 500 mg/kg, po. Type of series: organism-based. As to conditions: in vivo.
The test system of series [4] is Rattus norvegicus. Put plainly: Renal toxicity in rat Freund's adjuvant induced arthritis model of chronic inflammation assessed as assessed as creatinine level at equimolar oral dose relative to 10 mg/kg, po indomethacin dosed after 14 days from day of adjuvant injection until day 21 and measured on day 21 (reference value: 0.62 +/- 0.049 mg/dL). Type of series: organism-based. As to conditions: in vivo, 336 h.

For a further series, the system named is Mus musculus. Put plainly: Analgesic activity in Swiss albino mouse assessed as reduction in formalin-induced paw licking by measuring time spent on licking during phase-2 at equimolar oral dose relative to 10 mg/kg, po indomethacin dosed 1 hr before formalin challenge and measured 30 mins after formalin injection. Type of series: functional.
For series [5], the system named is Rattus norvegicus. Put plainly: Anti-inflammatory activity in rat Freund's adjuvant induced arthritis model of chronic inflammation assessed as inhibition of right hind paw swelling at equimolar oral dose relative to 10 mg/kg, po indomethacin dosed after 14 days from day of adjuvant injection until day 21 and measured on day 21. Type of series: functional.
Series [6] relates to Rattus norvegicus. Put plainly: Toxicity in healthy albino rat assessed as induction of coma up to 500 mg/kg, po. Type of series: organism-based. As to conditions: in vivo.
The test system of series [7] is Rattus norvegicus. Put plainly: Anti-inflammatory activity in rat model of acute inflammation assessed as inhibition of carrageenan-induced paw oedema dosed at equimolar oral dose relative to 10 mg/kg, po indomethacin dosed 1 hr before carrageenan injection and measured 1 hr after carrageenan injection. Type of series: functional. In general terms: The carrageenan paw model is a standard test of acute inflammation.

Series [8] concerns Rattus norvegicus. Kind of series: Hepato-toxicity in rat Freund's adjuvant induced arthritis model of chronic inflammation assessed as histological changes at equimolar oral dose relative to 10 mg/kg, po indomethacin dosed after 14 days from day of adjuvant injection until day 21 and measured on day 21 by hematoxylin and eosin staining based microscopy. As to conditions: in vivo, 336 h. Type of series: organism-based.

Series [9] has as its system Rattus norvegicus. Put plainly: Toxicity in healthy albino rat assessed as induction of lethargy up to 500 mg/kg, po. Type of series: organism-based. The note with it: in vivo.
The nature of series [10]: Octanol/water partition coefficient, log P of the compound by shake flask method. Type of series: physicochemical.
Series [11] has as its system Rattus norvegicus. Kind of series: Renal toxicity in rat Freund's adjuvant induced arthritis model of chronic inflammation assessed as histological changes at equimolar oral dose relative to 10 mg/kg, po indomethacin dosed after 14 days from day of adjuvant injection until day 21 and measured on day 21 by hematoxylin and eosin staining based microscopy. Type of series: organism-based. The note with it: in vivo, 336 h.

In series [12] the test system is Rattus norvegicus. Kind of series: Hepato-toxicity in rat Freund's adjuvant induced arthritis model of chronic inflammation assessed as assessed as SGOT level at equimolar oral dose relative to 10 mg/kg, po indomethacin dosed after 14 days from day of adjuvant injection until day 21 and measured on day 21 (reference value: 92.48 +/- 7.8 U/mL). Type of series: organism-based. As to conditions: in vivo, 336 h.

The subject of series [13] is Rattus norvegicus. Put plainly: Anti-inflammatory activity in rat Freund's adjuvant induced arthritis model of chronic inflammation assessed as inhibition of right hind paw swelling at equimolar oral dose relative to 10 mg/kg, po indomethacin dosed after 14 days from day of adjuvant injection until day 21 and measured on day 18. Type of series: functional.
Series [14] concerns the target T1, Prostaglandin G/H synthase 1 (Ovis aries, UniProt P05979).
T1 sequence (P05979 whole entry): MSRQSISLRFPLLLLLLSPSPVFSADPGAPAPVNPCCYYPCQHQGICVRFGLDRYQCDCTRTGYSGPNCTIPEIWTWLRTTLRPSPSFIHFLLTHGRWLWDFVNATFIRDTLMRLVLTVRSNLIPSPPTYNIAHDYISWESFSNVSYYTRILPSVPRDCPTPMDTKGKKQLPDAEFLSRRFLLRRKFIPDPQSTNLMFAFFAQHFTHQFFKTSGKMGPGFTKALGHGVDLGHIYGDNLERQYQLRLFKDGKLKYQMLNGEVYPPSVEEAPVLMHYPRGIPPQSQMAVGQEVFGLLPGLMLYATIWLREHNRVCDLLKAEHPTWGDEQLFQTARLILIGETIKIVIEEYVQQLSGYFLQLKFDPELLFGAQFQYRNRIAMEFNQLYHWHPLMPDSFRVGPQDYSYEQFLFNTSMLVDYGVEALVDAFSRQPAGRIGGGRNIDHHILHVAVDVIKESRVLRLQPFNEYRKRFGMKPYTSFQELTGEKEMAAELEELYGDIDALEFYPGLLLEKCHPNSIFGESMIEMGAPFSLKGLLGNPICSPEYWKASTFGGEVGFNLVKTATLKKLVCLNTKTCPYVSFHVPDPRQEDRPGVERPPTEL
Kind of series: Inhibition of ovine COX1 by oxidized TMPD detection based colorimetric assay.

Consider `Nc1ccc(-c2nnc(Cn3nc(-c4ccccc4)c(-c4ccccc4)nc3=O)o2)cc1`, for which the Activity entry in the series on Rattus norvegicus [1] is “Non-toxic”; in the series with Rattus norvegicus [3], “Non-toxic”; in the series with Rattus norvegicus [4] it was 0.86 mg/dL; in the series with Rattus norvegicus [6] it was “Non-toxic”; in the series on Rattus norvegicus [8] it was “Non-toxic”; with Rattus norvegicus [9] it was “Non-toxic”. The Activity entry is “Non-toxic” with Rattus norvegicus [11] and 98.21 U/ml with Rattus norvegicus [12]. Besides, the UI in the series with Rattus norvegicus [2] worked out at 12. The “inhibition (INH)” value in the series on Mus musculus came to 74.57%; in the series with Rattus norvegicus [5], 52.21%; with Rattus norvegicus [7] it was 24.02%; with Rattus norvegicus [13], 49.23%. This compound registered a logP in series [10] of 3.72. In addition, in [14], the pIC50 is 4.36.
Take `O=c1nc(-c2ccccc2)c(-c2ccccc2)nn1Cc1nnc(-c2ccc(Cl)cc2)o1`: in the series on Rattus norvegicus [2], the UI is reported as 18. Also, the Activity entry with Rattus norvegicus [3] is “Non-toxic”; in the series with Rattus norvegicus [4], 0.78 mg/dL; with Rattus norvegicus [6], “Non-toxic”; in the series on Rattus norvegicus [9], “Non-toxic”; in the series on Rattus norvegicus [12], 107.18 U/ml. Also, the “inhibition (INH)” value worked out at 75.85% in the series with Mus musculus, 51.98% with Rattus norvegicus [5], 22.98% in the series with Rattus norvegicus [7] and 48.87% in the series with Rattus norvegicus [13]. For the same compound, the lipophilicity (logP) in series [10] was 3.91. This compound also gave a pIC50 in series [14] of 4.35.
As to `O=c1nc(-c2ccccc2)c(-c2ccccc2)nn1Cc1nnc(-c2ccc(O)cc2O)o1`, the Activity result in the series on Rattus norvegicus [1] was “Non-toxic”; in the series on Rattus norvegicus [3] it was “Non-toxic”; in the series with Rattus norvegicus [4] it was 0.72 mg/dL; in the series with Rattus norvegicus [6], “Non-toxic”; in the series with Rattus norvegicus [8], “Non-toxic”; in the series on Rattus norvegicus [9], “Non-toxic”. For the same compound, the Activity entry with Rattus norvegicus [11] was “Non-toxic”; in the series on Rattus norvegicus [12] it was 99.35 U/ml. Also, the UI in the series on Rattus norvegicus [2] is 10. For the same compound, the “inhibition (INH)” value in the series with Mus musculus is on record as 75.21%; with Rattus norvegicus [5] it was 54.25%; with Rattus norvegicus [7] it was 24.71%; with Rattus norvegicus [13] it was 52.44%. This compound displayed a lipophilicity (logP) in series [10] of 3.46. Moreover, the negative-log IC50 (pIC50) in series [14] was 4.36.
Turning to `O=c1nc(-c2ccccc2)c(-c2ccccc2)nn1Cc1nnc(-c2ccc([N+](=O)[O-])cc2)o1`, the UI in the series with Rattus norvegicus [2] is on record as 16. The Activity result with Rattus norvegicus [3] was “Non-toxic”; with Rattus norvegicus [4] it was 0.88 mg/dL; in the series on Rattus norvegicus [6], “Non-toxic”; in the series with Rattus norvegicus [9], “Non-toxic”; in the series on Rattus norvegicus [12], 102.38 U/ml. The “inhibition (INH)” value in the series with Mus musculus was found to be 78.04%; in the series on Rattus norvegicus [5], 49.7%; in the series on Rattus norvegicus [7], 19.98%; in the series on Rattus norvegicus [13], 45.9%. In series [10], this compound showed a logP of 3.71. Further, the negative-log IC50 (pIC50) in [14] is 4.35.
As to `COc1ccc(-c2nnc(Cn3nc(-c4ccccc4)c(-c4ccccc4)nc3=O)o2)cc1`, the UI in the series on Rattus norvegicus [2] is on record as 11. The Activity entry is “Non-toxic” in the series with Rattus norvegicus [3]; 0.91 mg/dL in the series on Rattus norvegicus [4]; “Non-toxic” with Rattus norvegicus [6]; “Non-toxic” in the series with Rattus norvegicus [9]; 103.17 U/ml in the series on Rattus norvegicus [12]. Further, the “inhibition (INH)” value with Mus musculus was 74.38%; with Rattus norvegicus [5], 49.34%; in the series on Rattus norvegicus [7] it was 18.24%; in the series with Rattus norvegicus [13], 45.78%. The compound also yielded a logP in series [10] of 3.56. In addition, the negative-log IC50 (pIC50) in [14] is 4.35.

One may read the logP as a log measure of how a compound divides between an organic and an aqueous phase. What is called pIC50 is the IC50 on a negative log10 scale, so that one unit is a factor of ten.
